24 compounds from patent US20220289728A1, “MODULATORS OF TREX1” (Constellation Pharmaceuticals, Inc., priority 2019, published 2022) can be followed below.

For test [1], the system named is HCT116 dual cells. The test can be described thus: HCT116 Cell Assay (Lucia luciferase reporter of Type I interferon induction). The test is classed as cell-based, human. The following applies: pBR322/BstNI DNA transfection, Lucia luciferase at 48 h, relative to 10 uM compound 39. The text has this: HCT116 dual cells (Invivogen, San Diego, Calif., USA) are derived from the human HCT116 colorectal carcinoma cell line. Cells have been selected for the stable integration of SEAP and Luciferase reporter genes, which expression is under the control of 5 tandem response elements for NF-KB/AP1 and STAT1/STAT2, respectively. The cell line was used to monitor Type I interferon induction and subsequent signaling by measuring the activity of the Lucia luciferase secreted in the culture medium.
HCT116 cells were plated in 96-well plate(s) at 40,000 cells/well in 100 uL DMEM supplemented with 10% FBS and 25 mM Hepes (pH 7.2-7.5). After overnight settling, cells were treated with TREX1i for 4 h (maximum DMSO fraction was 0.1%) before 1.25 ug/mL pBR322/BstNI restriction digest (New England Biolabs, Ipswich, Mass., USA) was transfected with Lipofectamine LTX (ThermoFisher, Grand Island, N.Y., USA), according to product manual recommendations. Briefly, Lipofectamine LTX (0.4 uL/well) was diluted in OptiMEM (5 uL/well). pBR322/BstNI (100 ng/well) was diluted in OptiMEM (5 uL/well) before Plus reagent (0.1 uL/100 ng DNA) was added. After 5 min incubation at room temperature, the DNA mixture was mixed dropwise with the diluted Lipofectamine LTX. After an additional 10 min incubation, the transfection mix (10 uL/well) was added to the cells. Cells were maintained at 37° C. for 48 h before monitoring the Lucia Luciferase activity from the cell culture medium. EC50 values were calculated by comparing the measured luminescence relative to 10 uM compound 39 (100% inhibition) and no inhibitor (0% inhibition) controls using non-linear least-squares four parameter fits in either Genedata Screener or GraphPad Prism (GraphPad Software, Inc.).
A general note: In a reporter assay the amount or activity of a reporter protein is the signal.

Test [2] addresses T1, human TREX2 (residues M44-A279) (Homo sapiens, UniProt Q9BQ50).
T1 construct: human TREX2 (residues M44-A279, expressed in E. coli); His-TEV (His tag with TEV site) (N); made in house; host or cells: E. coli
T1 sequence (Q9BQ50 44-279 isoform Q9BQ50-1): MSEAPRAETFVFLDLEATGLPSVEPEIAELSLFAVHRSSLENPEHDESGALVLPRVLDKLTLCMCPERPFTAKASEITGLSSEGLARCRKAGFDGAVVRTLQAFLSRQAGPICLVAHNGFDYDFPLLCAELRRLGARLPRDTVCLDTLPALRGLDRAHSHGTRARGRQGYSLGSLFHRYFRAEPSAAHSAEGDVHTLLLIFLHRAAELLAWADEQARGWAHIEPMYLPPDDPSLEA
The test can be described thus: TREX2 Biochemical Assay (fluorescence, dsDNA substrate degradation). As to conditions: 2.5 nM TREX2, 60 nM dsDNA substrate, 25 minutes at room temperature. Here is the method:
Degradation of the dsDNA liberates free fluorophore to produce a fluorescent signal. Specifically, 7.5 μL of N-terminally His-Tev tagged human TREX2 (residues M44-A279, expressed in E. coli and purified in house) in reaction buffer (50 mM Tris (pH 7.4), 150 mM NaCl, 2 mM DTT, 0.1 mg/mL BSA, 0.01% (v/v) Tween-20 and 100 mM MgCl2) was added to a 384-well Black ProxiPlate Plus (Perkin Elmer) which already contained compound (150 nL) at varying concentrations as a 10 point dose-response in DMSO. To this was added 7.5 μL of dsDNA substrate (Strand A: 5′ TEX615/GCT AGG CAG 3′; Strand B: 5′ CTG CCT AGC/IAbRQSp (IDT)) in reaction buffer. Final concentrations were 2.5 nM TREX2, 60 nM dsDNA substrate in reaction buffer with 1.0% DMSO (v/v). After 25 minutes at room temperature, reactions were quenched by the addition of 5 μL of stop buffer (same as reaction buffer plus 200 mM EDTA). Final concentrations in the quenched reaction mixture were […] TREX2, 45 nM DNA and 50 mM EDTA in a volume of 20 μL. After a 5-minute incubation at room temperature, plates were read in a laser sourced Envision (Perkin-Elmer), measuring fluorescence at 615 nm following excitation w/570 nm light. IC50 values were calculated by comparing the measured fluorescence at 615 nm ratio relative to control wells pre-quenched w/stop buffer (100% inhibition) and no inhibitor (0% inhibition) controls as using non-linear least square four parameter fits and either Genedata or GraphPad Prism (GraphPad Software, Inc.).

In test [3] the target is T2, full length human TREX1 (Homo sapiens, UniProt Q9NSU2).
T2 construct: N-terminally His-Tev tagged full length human TREX1; His-TEV (His tag with TEV site) (N); made in house; host or cells: E. coli
T2 sequence (Q9NSU2 1-314): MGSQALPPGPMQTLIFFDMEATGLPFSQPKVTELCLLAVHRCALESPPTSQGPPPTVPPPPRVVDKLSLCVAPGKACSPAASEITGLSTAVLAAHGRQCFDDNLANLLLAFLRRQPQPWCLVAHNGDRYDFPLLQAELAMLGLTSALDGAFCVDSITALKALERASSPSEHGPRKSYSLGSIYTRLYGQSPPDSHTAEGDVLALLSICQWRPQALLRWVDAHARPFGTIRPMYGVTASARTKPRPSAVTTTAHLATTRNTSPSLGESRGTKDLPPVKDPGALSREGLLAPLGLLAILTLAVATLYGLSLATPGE
As to the kind of experiment: TREX1 Biochemical Assay (fluorescence, dsDNA substrate degradation). As to conditions: 150 pM TREX1, 60 nM dsDNA substrate, 25 minutes at room temperature. Here is the method: Degradation of the dsDNA liberates free fluorophore to produce a fluorescent signal. Specifically, 7.5 μL of N-terminally His-Tev tagged full length human TREX1 (expressed in E. coli and purified in house) in reaction buffer (50 mM Tris (pH 7.4), 150 mM NaCl, 2 mM DTT, 0.1 mg/mL BSA, 0.01% (v/v) Tween-20 and 100 mM MgCl2) was added to a 384-well Black ProxiPlate Plus (Perkin Elmer) which already contained compound (150 nL) at varying concentrations as a 10 point dose-response in DMSO. To this was added 7.5 μL of dsDNA substrate (Strand A: 5′ TEX615/GCT AGG CAG 3′; Strand B: 5′ CTG CCT AGC/IAbRQSp (Integrated DNA Technologies)) in reaction buffer. Final concentrations were 150 pM TREX1, 60 nM dsDNA substrate in reaction buffer with 1.0% DMSO (v/v). After 25 minutes at room temperature, reactions were quenched by the addition of 5 μL of stop buffer (same as reaction buffer plus 200 mM EDTA). Final concentrations in the quenched reaction were 112.5 pM TREX1, 45 nM DNA and 50 mM EDTA in a volume of 20 μL. After a 5-minute incubation at room temperature, plates were read in a laser sourced Envision (Perkin-Elmer), measuring fluorescence at 615 nm following excitation w/570 nm light. IC50 values were calculated by comparing the measured fluorescence at 615 nm ratio relative to control wells pre-quenched w/stop buffer (100% inhibition) and no inhibitor (0% inhibition) controls as using non-linear least square four parameter fits and either Genedata or GraphPad Prism (GraphPad Software, Inc.).

[4] abbreviates: Homo sapiens, HCT-116, 4 h pre-treatment.

Turning to “2-(dibenzylamino)-5-ethoxy-N-(isoxazol-4-yl)-1-methyl-6-oxo-1,6-dihydropyrimidine-4-carboxamide [Example 1]”, the concentration for a half-maximal effect (EC50) in test [1] (4 h pre-treatment) was in the range of 1000 to 10000 nM. Moreover, the results for the IC50 in test [2] and in test [3] were below 1 µM and below 100 nM, respectively.
As to `CN(c1nc(C(=O)Nc2cnoc2)c(O)c(=O)n1C)C(c1ccccc1)c1ccccc1Cl` (single isomer, unassigned) [Example 39], the EC50 in test [1] (setting [4]) was below 1000 nM. Moreover, the IC50 in test [2] is below 1 µM; in test [3] it was below 100 nM.
As for `CN(c1nc(C(=O)Nc2cnoc2)c(O)c(=O)n1C)C(c1ccccc1)c1ccccc1Cl` (single isomer, unassigned) [Example 40], the EC50 in test [1] (4 h pre-treatment) was below 1000 nM. In addition, the figures for the IC50 in test [2] and in test [3] were below 1 µM and below 100 nM, respectively.
Take `CN(c1nc(C(=O)Nc2cnoc2)c(O)c(=O)n1C)C(c1ccccc1)c1ccccn1` (single isomer, unassigned) [Example 41]: the EC50 in test [1] (setting [4]) was below 1000 nM. For the same compound, the figures for the IC50 in test [2] and in test [3] were below 1 µM and below 100 nM, respectively.
Consider `CN(c1nc(C(=O)Nc2cnoc2)c(O)c(=O)n1C)C(c1ccccc1)c1ccccn1` (single isomer, unassigned) [Example 42], for which, in test [1] (4 h pre-treatment), the EC50 fell in the range of 1000 to 10000 nM. Besides, the values for the IC50 in test [2] and in test [3] were 1 to 10 µM and below 100 nM, respectively.
On to `Cc1ccc(C(c2ccccc2)N(C)c2nc(C(=O)Nc3cnoc3)c(O)c(=O)n2C)cn1` (single isomer, unassigned) [Example 43], for which the EC50 in test [1] (setting [4]) was 1000 to 10000 nM. Besides, the results for the IC50 in test [2] and in test [3] were below 1 µM and below 100 nM, respectively.
As for `Cc1ccc(C(c2ccccc2)N(C)c2nc(C(=O)Nc3cnoc3)c(O)c(=O)n2C)cn1` (single isomer, unassigned) [Example 44], the EC50 in test [1] (4 h pre-treatment) is below 1000 nM. Also, the IC50 is below 1 µM in test [2] and below 100 nM in test [3].
Take `CN(c1nc(C(=O)Nc2cnoc2)c(O)c(=O)n1C)C(c1ccccc1)C1CCOCC1` (single isomer, unassigned) [Example 45]: the EC50 in test [1] (setting [4]) is 1000 to 10000 nM. Further, the 50% inhibitory concentration (IC50) in test [2] is 1 to 10 µM; in test [3] it was below 100 nM.
Turning to `CN(c1nc(C(=O)Nc2cnoc2)c(O)c(=O)n1C)C(c1ccccc1)C1CCOCC1` (single isomer, unassigned) [Example 46], the EC50 in test [1] (4 h pre-treatment) fell in the range of 1000 to 10000 nM. Besides, the IC50 is 1 to 10 µM in test [2] and below 100 nM in test [3].
For the compound `Cc1ncc(C(c2ccccc2Cl)N(C)c2nc(C(=O)Nc3cnoc3)c(O)c(=O)n2C)cn1` (single isomer, unassigned) [Example 82], the IC50 is above 100 µM in test [2] and above 10000 nM in test [3].
With `CN(CCc1ccccc1)c1nc(C(=O)Nc2cnoc2)c(O)c(=O)n1C` [Example 3], the IC50 was 10 to 100 µM in test [2] and 100 to 1000 nM in test [3].
As to `CN(Cc1ccc(C(F)(F)F)cc1)c1nc(C(=O)Nc2cnoc2)c(O)c(=O)n1C` [Example 12], the results for the IC50 in test [2] and in test [3] were 10 to 100 µM and 100 to 1000 nM, respectively.
`CN(Cc1ccccc1-c1cccc(Cl)c1)c1nc(C(=O)Nc2cnoc2)c(O)c(=O)n1C` [Example 17]: the IC50 in test [2] is 1 to 10 µM; in test [3] it was below 100 nM.
For `CN(Cc1cccnc1-c1cccc(Cl)c1)c1nc(C(=O)Nc2cnoc2)c(O)c(=O)n1C` [Example 20] the same measures were 1 to 10 µM and 100 to 1000 nM.
As to `CN(Cc1cnn(C)c1)c1nc(C(=O)Nc2cnoc2)c(O)c(=O)n1C` [Example 33], the figures for the half-inhibitory concentration (IC50) in test [2] and in test [3] were 10 to 100 µM and 100 to 1000 nM, respectively.
In the case of `CN(Cc1cncnc1)c1nc(C(=O)Nc2cnoc2)c(O)c(=O)n1C` [Example 34], the IC50 in test [2] lay within 10 to 100 µM; in test [3], 100 to 1000 nM.
Turning to `CN(Cc1ccncc1)c1nc(C(=O)Nc2cnoc2)c(O)c(=O)n1C` [Example 37], the IC50 in test [2] fell in the range of 10 to 100 µM; in test [3], 100 to 1000 nM.
For `Cc1csc(CN(C)c2nc(C(=O)Nc3cnoc3)c(O)c(=O)n2C)n1` [Example 38], the IC50 in test [2] was 1 to 10 µM; in test [3] it was 100 to 1000 nM.
In the same order, the values of `CN1CCC(C(c2ccccc2)N(C)c2nc(C(=O)Nc3cnoc3)c(O)c(=O)n2C)CC1` (stereo not drawn) [Example 49] are 10 to 100 µM and 100 to 1000 nM.
Consider `CN(c1nc(C(=O)Nc2cnoc2)c(O)c(=O)n1C)C1CCCCC1` [Example 72], for which the results for the IC50 in test [2] and in test [3] were 1 to 10 µM and 100 to 1000 nM, respectively.
For the compound `CC(=O)N1CCC(N(C)c2nc(C(=O)Nc3cnoc3)c(O)c(=O)n2C)CC1` [Example 73], the IC50 in test [2] was in the range of 10 to 100 µM; in test [3], 100 to 1000 nM.
In the case of `CN(C)C(=O)c1ccccc1CN(C)c1nc(C(=O)Nc2cnoc2)c(O)c(=O)n1C` [Example 75], the values for the IC50 in test [2] and in test [3] were 10 to 100 µM and 100 to 1000 nM, respectively.
In the same order, the values of `CN(C)C(=O)c1ccc(CN(C)c2nc(C(=O)Nc3cnoc3)c(O)c(=O)n2C)cc1` [Example 76] are 10 to 100 µM and 100 to 1000 nM.
For the compound `CN(C)C(=O)c1cccc(CN(C)c2nc(C(=O)Nc3cnoc3)c(O)c(=O)n2C)c1` [Example 77], the IC50 in test [2] fell in the range of 10 to 100 µM; in test [3] it was 100 to 1000 nM.

One may read the EC50 as the midpoint of the concentration-response curve. What is called IC50 is the concentration that gives 50% inhibition.
